The values that follow come from patent publication US10793582B2, “Bicyclic heterocyclic compound” (MITSUBISHI TANABE PHARMA CORPORATION, priority 2015, dated 2020).

Molecules are shown by their SMILES.

Chain of human recombinant KAT-II (Q8N5Z0 30-425): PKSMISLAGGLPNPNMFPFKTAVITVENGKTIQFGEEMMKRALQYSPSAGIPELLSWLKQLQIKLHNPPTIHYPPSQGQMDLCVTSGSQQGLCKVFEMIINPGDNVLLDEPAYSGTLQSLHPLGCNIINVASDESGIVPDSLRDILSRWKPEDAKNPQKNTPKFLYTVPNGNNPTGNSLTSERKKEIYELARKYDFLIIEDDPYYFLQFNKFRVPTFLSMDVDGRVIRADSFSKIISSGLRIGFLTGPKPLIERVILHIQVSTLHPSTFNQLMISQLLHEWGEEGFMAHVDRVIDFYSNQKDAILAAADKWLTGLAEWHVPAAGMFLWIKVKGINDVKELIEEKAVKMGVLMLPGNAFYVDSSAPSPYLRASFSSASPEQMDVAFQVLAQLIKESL

For this test, the target named is human recombinant KAT-II (Homo sapiens (Human), UniProt Q8N5Z0). The test can be described thus: KAT-II inhibitory test. The conditions noted are these: 3.0 μmol/L kynurenine, 37° C. for 1 hr, kynurenic acid by HPLC. It is filed as biochemical. As to the method:
The compounds described in the above-mentioned Examples were used for the KAT-II inhibitory test.
Human recombinant KAT-II was prepared as follows.
His tag and maltose binding protein tag were added to the N-terminal of a gene encoding human KAT-II (Genbank accession number: AF481738.1), and the obtained gene was incorporated into pET32 (Merck Nihon Millipore), which is an Escherichia coli expression vector. Human recombinant KAT-II produced by BL21(DE3) Escherichia coli (Merck Nihon Millipore, 69450) transformed using the plasmid was purified using an amylose resin column (New England Biolabs, #800-21 L).
The inhibitory action of the test compound on human recombinant KAT-II was determined by the following method.
To a reaction mixture (45 μL) containing 3.0 μmol/L kynurenine, 10 μmol/L pyridoxal phosphate, 2.0 ng/μL human recombinant KAT-II, and 150 mmol/L tris(hydroxymethyl)aminomethane-acetate buffer (pH 8.0) was added a 10% dimethyl sulfoxide solution (5 μL) of each test compound prepared, and the mixture was reacted at 37° C. for 1 hr. After the reaction, 50% trichloroacetic acid (5 μL) was added to terminate the reaction.
The resultant kynurenic acid was quantified as follows by high performance liquid chromatography. An enzyme reaction mixture was separated by an octadecylsilane reversed-phase column (SC-50DS, Eicom Corporation; mobile phase: 250 mmol/L zinc acetate, 50 mmol/L sodium acetate, and 5.0% acetonitrile (pH 6.2)) incubated at 30° C., and kynurenic acid was quantified using a fluorescence detector (RF-20Axs, Shimadzu Corporation) at excitation wavelength 354 nm, detection wavelength 460 nm. The analytical curve was drawn every time by an external standard method. Each test compound was tested by dual measurement at each concentration. The kynurenic acid level in the presence of a test compound at each concentration was converted into % relative to kynurenic acid resulting from a reaction with an enzyme alone as 100%, and the obtained values were fitted to S-curve to determine IC50.
On to `CCOc1ncnc2nc(N3CCC[C@@H]3C(=O)NCc3ccccc3)sc12` [Example 19, (R)—N-benzyl-1-(7-ethoxy[1,3]thiazolo[4,5-d]pyrimidin-2-yl)pyrrolidine-2-carboxamide], for which the IC50 turned out to be 0.037 µM.

Take `O=C(NCc1ccccc1)[C@H]1CCCN1c1nc2ncnc(C3CC3)c2s1` [Example 23, (R)—N-benzyl-1-(7-cyclopropyl[1,3]thiazolo[4,5-d]pyrimidin-2-yl)pyrrolidine-2-carboxamide]: the IC50 was determined as 0.026 µM.

Turning to `CCc1ncnc2nc(N3CCC[C@@H]3C(=O)NCc3ccccc3)sc12` [Example 24], the IC50 was 0.2 µM.

`CCCc1ncnc2nc(N3CCC[C@@H]3C(=O)NCc3ccccc3)sc12` [Example 26]: the IC50 stood at 0.12 µM.

On to `CC(C)c1ncnc2nc(N3CCC[C@@H]3C(=O)NCc3ccccc3)sc12` [Example 28], for which the IC50 worked out at 0.19 µM.

Regarding `CC(C)(C)c1ncnc2nc(N3CCC[C@@H]3C(=O)NCc3ccccc3)sc12` [Example 30], the IC50 worked out at 0.27 µM.

Turning to `CC1(c2ncnc3nc(N4CCC[C@@H]4C(=O)NCc4ccccc4)sc23)CC1` [Example 31, (R)—N-benzyl-1-[7-(1-methylcyclopropyl)[1,3]thiazolo[4,5-d]pyrimidin-2-yl]pyrrolidine-2-carboxamide], the IC50 was found to be 0.065 µM.

Turning to `COCCc1ncnc2nc(N3CCC[C@@H]3C(=O)NCc3ccccc3)sc12` [Example 32], the IC50 was found to be 0.39 µM.

Regarding `COCc1ncnc2nc(N3CCC[C@@H]3C(=O)NCc3ccccc3)sc12` [Example 33], the IC50 came to 0.6 µM.

Take `COCc1ncnc2nc(N3CCC[C@@H]3C(=O)N[C@H](C)c3ccccc3)sc12` [Example 34]: the IC50 amounted to 0.64 µM.

In the case of `O=C(NCc1ccccc1)[C@H]1CCCN1c1nc2ncnc(-c3ccccn3)c2s1` [Example 35], the IC50 stood at 0.29 µM.

As to `C[C@H](C(=O)NCc1ccccc1)N(C)c1nc2ncnc(C3CC3)c2s1` [Example 36, (R)—N-benzyl-2-[N′-(7-cyclopropyl[1,3]thiazolo[4,5-d]pyrimidin-2-yl)-N′-methylamino]propionamide], the IC50 stood at 0.064 µM.

Turning to `COCCN(c1nc2ncnc(C3CC3)c2s1)[C@H](C)C(=O)NCc1ccccc1` [Example 38], the IC50 was found to be 0.41 µM.

Turning to `C[C@H](C(=O)NCc1ccccc1)N(Cc1ccccn1)c1nc2ncnc(C3CC3)c2s1` [Example 39], the IC50 is 0.35 µM.

Turning to `CCc1nc(C2CC2)nc2nc(N3CCC[C@@H]3C(=O)NCc3ccccc3)sc12` [Example 41], the IC50 was 0.17 µM.

As for `O=C(NCc1ccccc1)[C@H]1CCCN1c1nc2nc(CC3CCOCC3)nc(C3CC3)c2s1` [Example 46], the IC50 came to 0.035 µM.

Regarding `O=C(NCc1ccccc1)[C@H]1CCCN1c1nc2nc(-c3ccncc3)nc(C3CC3)c2s1` [Example 49], the IC50 stood at 0.076 µM.

Take `O=C(NCc1ccccc1)[C@H]1CCCN1c1nc2nc(C(F)F)nc(C3CCOCC3)c2s1` [Example 55]: the IC50 was determined as 0.41 µM.

Regarding `COCc1nc(C(F)(F)F)c2sc(N3CCC[C@@H]3C(=O)NCc3ccccc3)nc2n1` [Example 56], the IC50 stood at 0.23 µM.

Turning to `CN(C)Cc1nc(C2CC2)c2sc(N3CCC[C@@H]3C(=O)NCc3ccccc3)nc2n1` [Example 58], the IC50 came out at 0.64 µM.

As for `O=C(NCc1ccccc1)[C@H]1CCCN1c1nc2ncnc(Oc3ccccc3)c2s1` [Example 66], the IC50 was found to be 0.012 µM.

Take `CCNc1nc(C(F)(F)F)nc2nc(N3CCC[C@@H]3C(=O)NCc3ccccc3)sc12` [Example 67]: the IC50 is 0.012 µM.

As for `O=C(NCc1ccccc1)[C@H]1CCCN1c1nc2ncnc(OCC(F)(F)F)c2s1` [Example 70], the half-inhibitory concentration (IC50) came to 0.16 µM.

Turning to `CCOc1nc(C2CCOCC2)nc2nc(N3CCC[C@@H]3C(=O)NCc3ccccc3)sc12` [Example 75], the IC50 stood at 0.095 µM.

`CC(C)(C#N)c1ncnc2nc(N3CCC[C@@H]3C(=O)NCc3ccccc3)sc12` [Example 76, (R)—N-benzyl-1-[7-(2-cyanopropan-2-yl)[1,3]thiazolo[4,5-d]pyrimidin-2-yl]pyrrolidine-2-carboxamide]: the IC50 was 1.5 µM.

With `Cc1nc(-c2ccc(F)cc2)nc2nc(N3CCC[C@@H]3C(=O)NCc3ccccc3)sc12` [Example 78], the IC50 was 0.55 µM.

In the case of `O=C(NCc1ccccc1)[C@H]1CCCN1c1nc2nc(COC3CCOCC3)nc(C3CC3)c2s1` [Example 83], the 50% inhibitory concentration (IC50) was found to be 0.013 µM.

Turning to `Cc1nc(OC2CCOCC2)nc2nc(N3CCC[C@@H]3C(=O)NCc3ccccc3)sc12` [Example 84], the IC50 turned out to be 0.39 µM.

On to `CCOc1nc(C)c2sc(N3CCC[C@@H]3C(=O)NCc3ccccc3)nc2n1` [Example 88], for which the IC50 was determined as 0.42 µM.

Consider `O=C(NCc1ccccc1)[C@H]1CCCN1c1nc2ncnc(OC3CCC3)c2s1` [Example 89, (R)—N-benzyl-1-[7-(cyclobutyloxy)[1,3]thiazolo[4,5-d]pyrimidin-2-yl]pyrrolidine-2-carboxamide], for which the IC50 was 0.046 µM.

Turning to `O=C(NCc1ccccc1)[C@H]1CCCN1c1nc2ncnc(OC3CCOCC3)c2s1` [Example 90], the IC50 stood at 0.13 µM.

For the compound `CN(c1nc2ncnc(C3CC3)c2s1)C(C)(C)C(=O)NCc1ccccc1` [Example 92], the IC50 stood at 2.1 µM.

For `CN(c1nc2ncnc(C3CC3)c2s1)[C@@H](C(=O)NCc1ccccc1)C1CC1` [Example 93], the IC50 amounted to 0.14 µM.

Consider `O=C(NCc1ccccc1)[C@H]1CCCN1c1nc2nc(CN3CCOCC3)nc(C3CC3)c2s1` [Example 98], for which the IC50 amounted to 0.075 µM.

`O=C(NCc1ccccc1)[C@H]1CSCN1c1nc2ncnc(C3CC3)c2s1` [Example 100, (S)—N-benzyl-3-(7-cyclopropyl[1,3]thiazolo[4,5-d]pyrimidin-2-yl)-1,3-thiazolidine-4-carboxamide]: the IC50 is 0.24 µM.

In the case of `CCc1nc(-n2nccn2)nc2nc(N3CCC[C@@H]3C(=O)NCc3ccccc3)sc12` [Example 101, (R)—N-benzyl-1-[7-ethyl-5-(2H-1,2,3-triazol-2-yl)[1,3]thiazolo[4,5-d]pyrimidin-2-yl]pyrrolidine-2-carboxamide], the IC50 was 0.15 µM.

As for `CCc1nc(-n2nc(C)cc2C)nc2nc(N3CCC[C@@H]3C(=O)NCc3ccccc3)sc12` [Example 103, (R)—N-benzyl-1-[5-(3,5-dimethyl-1H-pyrazol-1-yl)-7-ethyl[1,3]thiazolo[4,5-d]pyrimidin-2-yl]pyrrolidine-2-carboxamide], the IC50 turned out to be 0.2 µM.

Turning to `CN(C)c1nc(C2CC2)c2sc(N3CCC[C@@H]3C(=O)NCc3ccccc3)nc2n1` [Example 106, (R)—N-benzyl-1-[7-cyclopropyl-5-(N,N-dimethylamino)[1,3]thiazolo[4,5-d]pyrimidin-2-yl]pyrrolidine-2-carboxamide], the IC50 is 0.92 µM.

Regarding `Cc1nc2nc(N3CCC[C@@H]3C(=O)NCc3ccccc3)sc2c(=O)n1C` [Example 109, (R)—N-benzyl-1-(5,6-dimethyl-7-oxo-6,7-dihydro[1,3]thiazolo[4,5-d]pyrimidin-2-yl)pyrrolidine-2-carboxamide], the IC50 stood at 0.84 µM.

Consider `CC(C)c1cnc2nc(N3CCC[C@@H]3C(=O)NCc3ccccc3)sc2c1` [Example 111], for which the IC50 came to 0.21 µM.

`CC(C)(C#N)c1cnc2nc(N3CCC[C@@H]3C(=O)NCc3ccccc3)sc2c1` [Example 113, (R)—N-benzyl-1-[6-(2-cyanopropan-2-yl)[1,3]thiazolo[4,5-b]pyridin-2-yl]pyrrolidine-2-carboxamide]: the IC50 is 0.085 µM.

As to `N#CC1(c2cnc3nc(N4CCC[C@@H]4C(=O)NCc4ccccc4)sc3c2)CCC1` [Example 115], the IC50 stood at 0.07 µM.

`N#CC1(c2cnc3nc(N4CCC[C@@H]4C(=O)NCc4ccccc4)sc3c2)CCOCC1` [Example 116]: the IC50 amounted to 0.09 µM.

In the case of `COCC1(c2cnc3nc(N4CCC[C@@H]4C(=O)NCc4ccccc4)sc3c2)CC1` [Example 117], the IC50 worked out at 0.17 µM.

`Cc1cc2sc(N3CCC[C@@H]3C(=O)NC3(c4ccccc4)CC3)nc2nc1C` [Example 120]: the IC50 was 0.53 µM.

As to `O=C(NCc1ccccc1)[C@H]1CCCN1c1nc2ncc(C(F)(F)F)cc2s1` [Example 124], the IC50 was 0.71 µM.

Regarding `O=C(NCc1ccccc1)[C@H]1CCCN1c1nc2ncc(C3(O)CCC3)cc2s1` [Example 126], the IC50 came out at 0.19 µM.

On to `COC1(c2cnc3nc(N4CCC[C@@H]4C(=O)NCc4ccccc4)sc3c2)CCC1` [Example 127], for which the IC50 was determined as 0.28 µM.

With `O=C(NCc1ccccc1)[C@H]1CCCN1c1nc2ncc(C3CCOCC3)cc2s1` [Example 129], the IC50 amounted to 0.072 µM.

On to `Cc1cnc2nc(N3CCC[C@@H]3C(=O)NCc3ccccc3)sc2c1` [Example 134], for which the IC50 amounted to 0.2 µM.

On to `Cc1cnc2nc(N3CCC[C@@H]3C(=O)NCc3ccccc3)sc2c1C#N` [Example 136, (R)—N-benzyl-1-(7-cyano-6-methyl[1,3]thiazolo[4,5-b]pyridin-2-yl)pyrrolidine-2-carboxamide], for which the IC50 turned out to be 0.49 µM.

Turning to `COCc1ccnc2nc(N3CCC[C@@H]3C(=O)NCc3ccccc3)sc12` [Example 141], the IC50 came to 0.32 µM.

Broadly, the IC50 is the concentration at which inhibition is half-maximal.
